Consider six compounds from ChEMBL document CHEMBL4177599, “The antitubercular activity of various nitro(triazole/imidazole)-based compounds” (Bioorg Med Chem, 2017).

Data set [1] concerns Mycobacterium tuberculosis. Kind of data set: Antitubercular activity against Mycobacterium tuberculosis H37Rv ATCC 27294 after 5 days under aerobic condition. The data set is classed as functional, organism-based. As to conditions: H37Rv ATCC 27294, 120 h.
Data set [2] has as its system Mycobacterium tuberculosis. Description: Antitubercular activity against Mycobacterium tuberculosis H37Rv ATCC 27294 after 10 days under low oxygen condition followed by incubation under aerobic condition for 28 hrs by LORA. Format: functional, organism-based.
Data set [3] has as its system Mycobacterium tuberculosis. Description: Bactericidal activity against Mycobacterium tuberculosis H37Rv ATCC 27294 assessed as concentration required for 2 log kill after 21 days under aerobic condition by colony forming assay. The data set is classed as functional. Conditions: H37Rv ATCC 27294, 504 h.
A further data set relates to THP-1. Description: Cytotoxicity against human THP1 cells after 3 days by luminescence assay. The data set is classed as cell-based. Conditions: THP-1, 72 h.
Data set [4] deals with Mycobacterium tuberculosis. Kind of data set: Antitubercular activity against luxABCDE expressing Mycobacterium tuberculosis H37Rv infected in human THP1 cells measured after 3 days by luminescence assay. The data set is classed as functional, organism-based. As to conditions: THP-1, 72 h.
Data set [5] is described as follows: Protein binding in human plasma at 5 uM after 4 hrs by LC-MS/MS analysis.
Data set [6] is described as follows: Half life in human liver S9 microsomes at 1 uM in presence of NADPH by LC-MS/MS analysis.
Data set [7] in a line: Half life in human liver S9 microsomes at 1 uM in absence of NADPH by LC-MS/MS analysis.
In a further data set the test system is HepG2. Kind of data set: Cytotoxicity against human HepG2 cells at 100 uM after 3 days by CellTiter-Glo luminescent cell viability assay. Format: cell-based. As to conditions: HepG2, 72 h.
Data set [8] can be described thus: in vitro. As to conditions: human, Caco-2.
Description: Apparent permeability of the compound across apical side to basolateral side in human Caco2 cells monolayer at 10 uM after 2 hrs by LC-MS/MS analysis
Data set [9] in a line: in vitro. Conditions: human, Caco-2. The source holds these as a separate data set.
Description: Apparent permeability of the compound across basolateral side to apical side in human Caco2 cells monolayer at 10 uM after 2 hrs by LC-MS/MS analysis
Data set [10] is described as follows: in vitro. Conditions: human, Caco-2. The source holds these as a separate data set.
Description: Efflux ratio of apparent permeability from basolateral to apical over apical to basolateral side in human Caco2 cells monolayer at 10 uM after 2 hrs by LC-MS/MS analysis
The next data set relates to Vero. Description: Cytotoxicity against African green monkey Vero cells after 2 days by CellTiter-Glo luminescent cell viability assay. The data set is classed as ADME, cell-based. As to conditions: Chlorocebus sabaeus, 48 h.
Data set [11] has as its system Mycobacterium tuberculosis. Description: Antitubercular activity against luxABCDE expressing Mycobacterium tuberculosis H37Rv infected in mouse J774 macrophages assessed as log reduction in bacterial colonies at 200 uM measured after 4 days under aerobic condition by luminescence assay. The data set is classed as functional.
The test system of data set [12] is Mycobacterium tuberculosis. Description: Antitubercular activity against luxABCDE expressing Mycobacterium tuberculosis H37Rv infected in mouse J774 macrophages assessed as log reduction in bacterial colonies at 20 uM measured after 4 days under aerobic condition by luminescence assay. The data set is classed as functional.
Data set [13] is described as follows: Apparent permeability of the compound across basolateral side to apical side in human Caco2 cells monolayer at 10 uM after 1 hr by LC-MS/MS analysis. Format: ADME, cell-based. Conditions: Caco-2.
Data set [14] can be described thus: Fraction unbound in human plasma at 5 uM after 4 hrs by LC-MS/MS analysis. The data set is classed as ADME, cell-free.
Data set [15] can be described thus: in vitro. Conditions: human, Caco-2. This is another data set of the same source.
Description: Efflux ratio of apparent permeability from basolateral to apical over apical to basolateral side in human Caco2 cells monolayer at 10 uM after 1 hr by LC-MS/MS analysis
In data set [16] the test system is Mycobacterium tuberculosis. Kind of data set: Potency index, ratio of compound MIC to metronidazole MIC for antitubercular activity against Mycobacterium tuberculosis H37Rv ATCC 27294 under low oxygen condition. The data set is classed as functional.
The next data set has as its system L6. Kind of data set: Cytotoxicity against rat L6 cells after 2 days by CellTiter-Glo luminescent cell viability assay. Format: ADME, cell-based. As to conditions: L6, 48 h.

≈ marks a conversion by molar mass, not a printed value. Some results are limits rather than exact numbers.

Turning to `O=C(Cn1cnc([N+](=O)[O-])n1)Nc1ccc(N2CCCCC2)cc1`, the IC50 in data set [1] is 29 µM; in data set [2] it was 99 µM; with THP-1, greater than 50 µM; in data set [4], 11 µM; with HepG2, greater than 100 µM. Moreover, the 90% effect concentration (IC90) in [1] was found to be 46 µM; in data set [2], 110 µM; in data set [4], 25 µM. The MIC in [1] was 48 µM (≈ 15.9 µg/mL); in data set [2], 120 µM (≈ 39.6 µg/mL). Moreover, in data set [3], the MBC worked out at 20 µM (≈ 6.61 µg/mL). This compound showed a fraction unbound at 4 h, 5 µM in [5] of 0.233. The values for the half-life at 1 µM in data set [6] and in [7] were 2.68 h and greater than 3 h, respectively. In the data set “in vitro [8]”, this compound had a Papp A→B at 2 h, 10 µM of 38.4 ×10⁻⁶ cm/s. Further, the Papp B→A at 2 h, 10 µM in “in vitro [9]” was 27 ×10⁻⁶ cm/s. In addition, the efflux ratio at 2 h, 10 µM in the data set “in vitro [10]” turned out to be 0.7.
In [1], `O=C(Cn1cnc([N+](=O)[O-])n1)Nc1ccc(Oc2ccccc2)cc1` registered a half-inhibitory concentration (IC50) of 65 µM, a concentration for an effect of 90% (IC90) of 100 µM and an MIC of 105 µM (≈ 35.6 µg/mL). In data set [2], this compound showed an IC50 of 8.9 µM, an IC90 of 92 µM and an MIC greater than 200 µM. Moreover, the MBC in data set [3] came out at 200 µM (≈ 67.9 µg/mL). In addition, the IC50 in the data set with Vero came out at 39 µM. The “log(activity)” value in data set [11] is recorded as 2.7.
In the case of `O=C(Cn1ccnc1[N+](=O)[O-])Nc1ccc(Oc2ccc(F)cc2)cc1`, the figures for the concentration for half-maximal inhibition (IC50) (in [1]; in data set [2]; in the data set on Vero) were 44 µM, 17 µM and 56 µM, respectively. The figures for the IC90 in [1] and in data set [2] were 89 µM and 31 µM, respectively. Besides, the MIC in data set [1] stood at 80 µM (≈ 28.5 µg/mL); in data set [2], 61 µM (≈ 21.7 µg/mL). In addition, in data set [3], the MBC amounted to 100 µM (≈ 35.6 µg/mL). Also, the “log(activity)” value in data set [12] stood at 2.2.
As to `CC(C)NCC(O)COc1cccc2ccccc12` (configuration not stated) [PROPRANOLOL], the fraction unbound at 4 h, 5 µM in [5] is 0.199; in data set [14], 0.244. Also, the Papp B→A at 1 h, 10 µM in data set [13] was determined as 43.3 ×10⁻⁶ cm/s. For the same compound, the Papp A→B at 2 h, 10 µM in “in vitro [8]” was 8.8 to 25.4 ×10⁻⁶ cm/s. This compound also displayed a Papp B→A at 2 h, 10 µM in “in vitro [9]” of 21.1 to 27.3 ×10⁻⁶ cm/s. For the same compound, the efflux ratio at 2 h, 10 µM in the data set “in vitro [10]” fell in the range of 0.83 to 3.1. The efflux ratio at 1 h, 10 µM in “in vitro [15]” was 2.5.
`O=C(Cn1ccnc1[N+](=O)[O-])Nc1ccc(Oc2ccc(Cl)cc2)cc1`: the 50% inhibitory concentration (IC50) worked out at 81 µM in [1], 17 µM in data set [2] and 30 µM in the data set with Vero. Also, the 90% effect concentration (IC90) is greater than 200 µM in data set [1] and 24 µM in data set [2]. Moreover, the figures for the MIC in data set [1] and in data set [2] were greater than 200 µM and 35 µM (≈ 13 µg/mL), respectively. For the same compound, the MBC in [3] turned out to be 100 µM (≈ 37.3 µg/mL). Further, the Ratio in data set [16] was 6 - 9. Also, the “log(activity)” value in [12] is recorded as 2.6.
In the case of `O=C(Cn1ccnc1[N+](=O)[O-])Nc1ccc(Oc2ccccc2)cc1`, the IC50 in data set [1] came out at 60 µM; in data set [2] it was 14 µM; with Vero, 98 µM; with L6, 63 µM. Further, the values for the IC90 in data set [1] and in data set [2] were 90 µM and 71 µM, respectively. Besides, the MIC in [1] was 98 µM (≈ 33.2 µg/mL); in data set [2] it was greater than 200 µM. Besides, the minimal bactericidal concentration (MBC) in data set [3] came to 100 µM (≈ 33.8 µg/mL). The “log(activity)” value in [11] was 2.7.
